In patent US20020090341A1, “Method” (NYCOMED IMAGING AS, priority 1997, published 2002):
Like-named read-outs stand apart in the source and are kept apart here.

Tests used:
[1] = test system: normal and reperfused infarcted myocardium; settings: 90 minutes post injection
Experimental: Sprague-Dawley rats (female, 270-320 g, n=24) were subjected to occlusion of the anterior branch of the left main coronary artery for 60 minutes, followed by reperfusion for 120 minutes before injecting the test agent. A catheter was placed in the tail vein for administration of contrast media. Animals were connected to an ECG patient monitor and placed in the magnet such that the heart of each rat was at or near ioscenter. Magnetic field was optimized for a central slab of 6 mm thickness, within which the 2 mm section to be imaged was located. Inversion and slice select pulses were calibrated. Inversion recovery echo planar imaging was then used to measure baseline T1 values for myocardium and left ventricle chamber blood.
MnDPDP was then administered at doses of 25, 50 and 100 μmole/kg by intravenous injection of 2.5, 5 and 10 ml/kg, respectively, of the test solution which contained a 10 mM solution of MnDPDP. These injections were followed by a flush of physiologic saline solution (0.9%) such that the combined volumes of test agent and saline flush was 11 ml/kg. All injected solutions were warmed before being administered and were injected slowly over 1.5 mins. T1 values were remeasured at 5 minute intervals during the first 60 minutes after injection. Occasional animals were imaged at 90 minutes for T1 determination (EPI) and for visual inspection of contrast on STIR (short TI inversion recovery) prepared spin echo images.

[2] = test system: ex vivo guinea pig hearts; settings: for T1 relaxation time: LV tissue, 0.234 T
Experimental: Guinea pigs (450-500 g) were anaesthetised with sodium pentobarbital (intraperiotenal injection 100 mg). Hearts were rapidly excised and connected to the aortic cannula of a standard Langendorff perfusion system with conditions preset at 37° C. Perfusion with glucose-containing Krebs Henseleit's bicarbonate buffer (Krebs buffer) was maintained in the constant flow mode during the entire experiment by use of a finely adjustable pump. Under normal perfusion conditions coronary flow rate (CFR) was […] and during global, low flow ischemia 0.25 ml/min (92% reduction of normal CFR). Left ventricular (LV) developed pressure (LVDP) was measured by use of a LV fluid-filled balloon connected to a pressure transducer and recording device. At the end of the experiments excised samples from the LV were freeze-clamped, freeze-dried and prepared for analysis of LV contents of Mn metal by atomic absorbtion spectrophotometry and of ATP by high pressure liquid chromatography. Fresh, non-clamped LV samples were taken for immediate (within 30 min) measurements of tissue longitudinal (T1) relaxation time by use of a Bruker Minispec PC 110 spectrometer operating at 0.234 T and at a proton frequency of 10 MHz.
In normal perfusion experiments (series A) hearts were subjected to a 20 min control period before being perfused for 5 min with ascending concentrations (0-3000 μM) of MnDPDP present in the Krebs buffer. This was followed by 5 min perfusion with buffer only to ensure an effective washout of residual extracellular MnDPDP. In global ischemia experiments hearts were perfused at low flow (92% CFR reduction) with normal Krebs buffer. After different durations (0, 15, 30, 90, and 120 min) of ischemia MnDPDP (1000 μM, 3000 μM) was included in the buffer for a final 5 min period of low flow ischemia. The experiments were ended by 5 min perfusion at normal flow with anoxic and calcium-free Krebs buffer to ensure washout of residual extracellular MnDPDP without reactivating normal cardiac function. In the results (series B) the ischemia durations are presented as 0-5 min, 15-20 min, 30-35 min, 90-95 min, and 120-125 min.

[3] = MnDPDP 300 μM, versus control hearts
[4] = MnDPDP 1000 μM, versus control hearts
[5] = MnDPDP 3000 μM, versus control hearts

Structure (SMILES): Cc1ncc(COP(=O)(O)O)c(CN(CCN(CC(=O)[O-])Cc2c(COP(=O)(O)O)cnc(C)c2O)CC(=O)[O-])c1O.[Mn+2] [MnDPDP, manganese (II) chelate of N,N′-bis-(pyridoxal-5-phosphate)-ethylenediamine-N,N′-diacetic acid]
- SI normal/SI infarct, conventional T1 weighted images ([1]; highest dose): 1.15
- SI normal/SI infarct, STIR sequences ([1]; lowest dose): 0.85-1.3
- SI normal/SI infarct, conventional T1 weighted images ([1]; lowest dose (n=1)): about 1.25
- Tissue Mn content ([2]; MnDPDP 30 μM 5 min, then 5 min washout, n = 6, mean (SD)): 11.0(1.5) μmole/100 g dry wt
- T1 relaxation time ([2]; MnDPDP 30 μM, n = 6, mean (SD)): 871(93) msec
- Tissue Mn content ([2]; MnDPDP 100 μM 5 min, then 5 min washout, n = 6, mean (SD)): 12.2(2.4) μmole/100 g dry wt
- T1 relaxation time ([2]; MnDPDP 100 μM, n = 6, mean (SD)): 808(81) msec
- depression of LVDP ([2]; MnDPDP 300 μM): 10%
- Tissue Mn content ([2]; MnDPDP 300 μM 5 min, then 5 min washout, n = 6, mean (SD)): 23.2(4.1) μmole/100 g dry wt
- fold increase in Mn content [2, 3]: 5-6 fold
- reduction in T1 [2, 3]: 40%
- T1 relaxation time ([2]; MnDPDP 300 μM, n = 6, mean (SD)): 619(18) msec
- Tissue Mn content ([2]; MnDPDP 1000 μM 5 min, then 5 min washout, n = 6, mean (SD)): 45.4(10.8) μmole/100 g dry wt
- factor by which tissue Mn content was raised above the control level in non-treated hearts ([2]; MnDPDP 1000 μM at onset (0-5 min) of ischemia): 2-3
- Tissue Mn content ([2]; MnDPDP 1000 μM during last 5 min, ischemia 0-5 min, n = 4, mean (SD)): 10.5(3.6) μmole/100 g dry wt
- Tissue Mn content ([2]; MnDPDP 1000 μM during last 5 min, ischemia 15-20 min, n = 4, mean (SD)): 9.9(2.3) μmole/100 g dry wt
- Tissue Mn content ([2]; MnDPDP 1000 μM during last 5 min, ischemia 30-35 min, n = 4, mean (SD)): 4.3(1.6) μmole/100 g dry wt
- Tissue Mn content ([2]; MnDPDP 1000 μM during last 5 min, ischemia 90-95 min, n = 4, mean (SD)): 5.7(2.4) μmole/100 g dry wt
- Tissue Mn content ([2]; MnDPDP 1000 μM during last 5 min, ischemia 120-125 min, n = 4, mean (SD)): 5.6(2.3) μmole/100 g dry wt
- fold rise in Mn content [2, 4]: 11 fold
- reduction in T1 values [2, 4]: 55%
- T1 relaxation time ([2]; MnDPDP 1000 μM, n = 6, mean (SD)): 461(85) msec
- Tissue Mn content ([2]; MnDPDP 3000 μM 5 min, then 5 min washout, n = 6, mean (SD)): 70.4(14.9) μmole/100 g dry wt
- factor by which tissue Mn content was raised above the control level in non-treated hearts ([2]; MnDPDP 3000 μM at onset (0-5 min) of ischemia): 4-5
- Tissue Mn content ([2]; MnDPDP 3000 μM during last 5 min, ischemia 0-5 min, n = 4, mean (SD)): 16.5(2.4) μmole/100 g dry wt
- Tissue Mn content ([2]; MnDPDP 3000 μM during last 5 min, ischemia 15-20 min, n = 4, mean (SD)): 12.9(4.0) μmole/100 g dry wt
- Tissue Mn content ([2]; MnDPDP 3000 μM during last 5 min, ischemia 30-35 min, n = 4, mean (SD)): 6.0(2.2) μmole/100 g dry wt
- Tissue Mn content ([2]; MnDPDP 3000 μM during last 5 min, ischemia 90-95 min, n = 4, mean (SD)): 7.2(2.8) μmole/100 g dry wt
- fold rise in Mn content [2, 5]: 17 fold
- reduction in T1 values [2, 5]: 70%
- T1 relaxation time ([2]; MnDPDP 3000 μM, n = 6, mean (SD)): 341(46) msec
- tissue Mn contents, normal perfusion conditions relative to early ischemic conditions (0-5 min) ([2]; Table 1 versus Table 3): approximately 4 times
- LVDP after washout ([2]; following 5 min of MnDPDP washout): returns rapidly to control values
- LVDP during perfusion ([2]; higher concentrations of MnDPDP): falls rapidly
- tissue Mn content compared with normally perfused non-treated hearts ([2]; ischemic durations of 30-35 min, 90-95 min, and 120-125 min): not significantly different
